Entries after “also recorded” stand apart in the source; their conditions may differ.
System: fibrillar collagen type I
Assay: Blood perfusion over fibrillar collagen type I, volume of platelet aggregates and fibrin
Assay type: cell-based, human
Settings: blood of treated patients, collagen surface
Procedure: The volume of platelet aggregates and deposited fibrin was measured by confocal microscopy. Statistical analysis by one-way ANOVA and Tukey post-test. *P<0.05; **P<0.01; ***P<0.001.
Glass coverslips treated with 0.2 mg/ml poly-L-lysine for 6 h at 37° C. were coated with rTF for 18-20 hours at 37° C. or 2.5 mg/ml acid-insoluble type I collagen for 2 hours at 22-25° C. Then they were rinsed with pH 7.4 buffered-saline, assembled in a rectangular flow chamber with a 125 μm-high silicon gasket and positioned on a confocal microscope stage for analysis. Venous blood for testing was collected into final 10.9 mM trisodium citrate using a plastic syringe for normal volunteers or Vacutainer tubes (Becton Dickinson, Buccinasco, Milan) for patients and controls. Before perfusion at a flow rate yielding an initial wall shear rate of 300 s^−1 maintained with a syringe pump (Harvard Apparatus, Holliston, Mass.), CaCl2 was added to obtain 1.29 mM Ca^2+. In the blood of patients—potentially hypercoagulable—and related controls, lepirudin (50 nM) was also added to neutralize thrombin possibly generated before testing. […] For experiments with WT and mutant FVIIa, cells from group O citrated blood, containing 50 μg/ml CTI and 10 U/ml (ADPase activity) apyrase, were washed free of plasma by sequential centrifugation steps at 1500 g for 7 min. After the first, plasma was replaced with an equal volume of calcium-free Tyrode buffer, pH 6.5, with 5 U/ml apyrase; then with buffer and 1.25 U/ml apyrase; and finally with human FVII deficient plasma (George King Bio-Medical, Overland Park, Kans.) up to the original blood volume. […] Experiments in Milan (Italy) were performed with a Leica TCS SP5 microscope and HCX PL APO 63x/1.40 NA oil immersion objective (Leica Microsystems GmbH, Wetzlar, Germany); in La Jolla (California) with a Zeiss Axiovert 135M/LSM 410 and Plan-Apochromat 40x/1.40 NA oil immersion objective (Carl Zeiss AG, Oberkochen, Germany).
Platelets adhering and aggregating onto the surface were visualized by adding quinacrine-HCl (mepacrine; 10 μg/ml; Sigma-Aldrich) to blood. Deposited fibrin was visualized with Alexa Fluor 546-labeled (Invitrogen) mouse monoclonal IgG (50 μg/ml) specific for the B chain of mouse and human fibrin (HB-8545; ATCC). […] This was followed by buffer (DMEM) for 2 minutes to facilitate fibrin quantification by confocal z section analysis using a Zeiss Axiovert 135M/LSM 410 microscope (Carl Zeiss) and Plan-Apochromat×63/1.40 NA oil immersion objective. […] Deposited fibrin volume was measured from confocal sections collected at 4 preset positions in the flow chamber. Total volume of deposited platelets and fibrin was calculated from the sum of the respective area coverage per section multiplied by the z interval (2 μm). […]

Question: What does the source list for `O=C(NC[C@H]1CN(c2ccc(N3CCOCC3=O)cc2)C(=O)O1)c1ccc(Cl)s1` [Rivaroxaban]?
Answer: mean volume of platelet aggregates vs controls: not significantly different; volume of deposited fibrin vs controls: not significantly decreased; also recorded: not significantly different from normal
